Patent US20140249135A1, “PIM KINASE INHIBITORS AND METHODS OF THEIR USE” (NOVARTIS AG, priority 2007, published 2014)
Where two headings read alike, the source gives them in different places.

Tests used:
[1] = molecular target: Pim1 kinase (Homo sapiens, UniProt P11309); assay: Pim1 ATP depletion assay; assay type: biochemical; details: Pim1 ATP depletion assay;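 also: Luciferase-luciferin luminescence readout of residual ATP after PIM1 transfers phosphate to a peptide substrate, 40 µM ATP added, reaction run to roughly half ATP consumption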
[2] = molecular target: KDR kinase (Homo sapiens, UniProt P35968); assay: KDR AlphaScreen assay; details: KDR IC50 (μM)
[3] = molecular target: Pim2 kinase (Homo sapiens, UniProt Q9P1W9); assay: Pim2 ATP depletion assay; assay type: biochemical;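 also: Luciferase-based luminescent readout of ATP remaining after PIM2 phosphorylates a BAD peptide, final 5 nM enzyme, 4 µM ATP, 10 µM peptide, 2.5% DMSO, run to roughly half ATP consumption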
[4] = molecular target: T1, human full length PKCE enzyme (Homo sapiens, UniProt Q02156); assay: In vitro PKCE assay; assay type: biochemical; details: 10 nM enzyme, 40 uM peptide substrate, 20 uM ATP, KinaseGlo Plus readout; read-out: PKCε IC50
T1 construct: human full length PKCE enzyme purchased from InVitrogen; purchased InVitrogen
T1 sequence (Q02156 1-737): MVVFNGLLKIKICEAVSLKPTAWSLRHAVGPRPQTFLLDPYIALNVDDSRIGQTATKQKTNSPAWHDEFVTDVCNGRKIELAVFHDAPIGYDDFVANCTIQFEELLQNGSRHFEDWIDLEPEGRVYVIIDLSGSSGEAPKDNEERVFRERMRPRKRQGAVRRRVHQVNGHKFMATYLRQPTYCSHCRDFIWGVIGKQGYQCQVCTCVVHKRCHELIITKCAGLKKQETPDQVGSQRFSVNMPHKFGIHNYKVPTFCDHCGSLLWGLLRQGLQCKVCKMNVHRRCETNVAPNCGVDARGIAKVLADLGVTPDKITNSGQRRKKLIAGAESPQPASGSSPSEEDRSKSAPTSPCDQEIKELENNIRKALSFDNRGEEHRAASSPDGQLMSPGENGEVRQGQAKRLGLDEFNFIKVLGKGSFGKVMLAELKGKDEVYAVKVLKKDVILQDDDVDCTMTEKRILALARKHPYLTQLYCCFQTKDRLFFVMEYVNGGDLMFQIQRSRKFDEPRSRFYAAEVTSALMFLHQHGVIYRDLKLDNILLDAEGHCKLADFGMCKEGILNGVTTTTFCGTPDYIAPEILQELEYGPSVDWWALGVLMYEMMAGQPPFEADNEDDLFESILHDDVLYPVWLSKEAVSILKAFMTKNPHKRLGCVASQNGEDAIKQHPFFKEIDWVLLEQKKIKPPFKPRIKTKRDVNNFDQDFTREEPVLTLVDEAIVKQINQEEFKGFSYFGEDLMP

[5] = molecular target: Pim3 kinase (Homo sapiens, UniProt Q86V86); assay: Pim3 ATP depletion assay; assay type: biochemical

KDR kinase, sequence (P35968 20-1356): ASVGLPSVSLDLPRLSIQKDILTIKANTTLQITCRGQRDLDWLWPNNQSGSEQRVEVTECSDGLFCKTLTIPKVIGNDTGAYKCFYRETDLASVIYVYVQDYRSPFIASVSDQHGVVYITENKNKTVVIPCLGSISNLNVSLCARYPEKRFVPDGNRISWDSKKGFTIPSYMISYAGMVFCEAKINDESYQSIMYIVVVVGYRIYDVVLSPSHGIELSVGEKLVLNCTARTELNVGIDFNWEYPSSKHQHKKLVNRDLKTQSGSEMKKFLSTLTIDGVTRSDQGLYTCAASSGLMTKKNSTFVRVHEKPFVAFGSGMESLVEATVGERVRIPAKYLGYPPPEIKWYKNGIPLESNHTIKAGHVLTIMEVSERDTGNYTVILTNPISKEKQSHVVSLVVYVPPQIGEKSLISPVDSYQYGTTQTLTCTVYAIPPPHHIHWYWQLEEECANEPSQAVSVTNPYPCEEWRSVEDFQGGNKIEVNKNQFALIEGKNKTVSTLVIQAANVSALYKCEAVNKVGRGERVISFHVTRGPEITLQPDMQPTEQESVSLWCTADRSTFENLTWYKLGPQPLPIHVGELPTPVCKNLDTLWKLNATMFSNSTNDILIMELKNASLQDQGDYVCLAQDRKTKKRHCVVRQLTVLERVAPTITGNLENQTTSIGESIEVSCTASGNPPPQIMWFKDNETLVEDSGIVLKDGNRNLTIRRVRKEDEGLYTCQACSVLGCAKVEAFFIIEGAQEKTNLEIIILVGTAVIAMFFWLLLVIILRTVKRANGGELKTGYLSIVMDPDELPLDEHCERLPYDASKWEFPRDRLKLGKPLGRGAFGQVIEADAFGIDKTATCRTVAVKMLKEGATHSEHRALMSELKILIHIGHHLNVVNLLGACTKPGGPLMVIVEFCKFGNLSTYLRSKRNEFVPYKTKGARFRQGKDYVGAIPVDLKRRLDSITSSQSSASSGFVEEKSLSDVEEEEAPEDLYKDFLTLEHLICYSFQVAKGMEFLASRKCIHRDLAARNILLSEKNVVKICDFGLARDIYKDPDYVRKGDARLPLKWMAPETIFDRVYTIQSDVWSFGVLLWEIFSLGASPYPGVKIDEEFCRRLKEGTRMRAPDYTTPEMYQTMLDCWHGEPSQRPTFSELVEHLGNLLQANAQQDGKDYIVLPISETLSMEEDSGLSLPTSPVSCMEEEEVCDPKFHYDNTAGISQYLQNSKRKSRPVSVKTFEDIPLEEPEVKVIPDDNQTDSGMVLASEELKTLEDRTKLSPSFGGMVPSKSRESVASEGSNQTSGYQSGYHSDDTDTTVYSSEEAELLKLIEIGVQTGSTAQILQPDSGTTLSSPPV
Pim1 kinase, sequence (P11309 whole entry): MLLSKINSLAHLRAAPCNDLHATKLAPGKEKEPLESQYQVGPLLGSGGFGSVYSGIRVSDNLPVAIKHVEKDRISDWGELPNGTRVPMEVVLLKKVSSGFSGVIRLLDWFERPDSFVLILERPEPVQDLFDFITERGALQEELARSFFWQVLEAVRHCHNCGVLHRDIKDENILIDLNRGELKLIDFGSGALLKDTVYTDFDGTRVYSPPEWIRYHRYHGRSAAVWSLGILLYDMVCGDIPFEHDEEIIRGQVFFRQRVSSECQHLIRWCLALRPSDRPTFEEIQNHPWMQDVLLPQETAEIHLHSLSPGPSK
Pim2 kinase, sequence (Q9P1W9 whole entry): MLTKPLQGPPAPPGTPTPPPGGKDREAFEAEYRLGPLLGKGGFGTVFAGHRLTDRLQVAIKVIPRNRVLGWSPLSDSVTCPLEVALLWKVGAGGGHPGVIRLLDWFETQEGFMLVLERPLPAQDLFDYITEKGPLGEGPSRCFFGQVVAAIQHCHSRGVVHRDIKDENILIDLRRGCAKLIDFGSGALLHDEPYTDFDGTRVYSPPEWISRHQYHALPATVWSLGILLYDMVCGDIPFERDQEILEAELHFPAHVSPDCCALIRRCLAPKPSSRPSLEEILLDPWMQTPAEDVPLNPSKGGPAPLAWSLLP

Row | IC50 ([1]; read-out: IC50 (μM) PIM1) [µM] | IC50 [2] [µM] | IC50 ([3]; read-out: IC50 (μM) PIM2) [µM] | IC50 [4] [µM] | IC50 ([5]; read-out: IC50 (μM) PIM3) [µM] | IC50 ([1]; read-out: PIM1 IC50) [µM] | IC50 ([3]; read-out: PIM2 IC50) [µM] | IC50 ([5]; read-out: PIM3 IC50) [µM] | Structure (SMILES)
1 | < 1 | 1 to 10 | 1 to 10 | < 1 | < 1 |  |  |  | COc1ccc(-c2cnc(N)c(C(=O)Nc3ccccc3N3CCNCC3)n2)cc1 [Example 386, 3-amino-6-(4-methoxy-phenyl)-pyrazine-2-carboxylic acid (2-piperazin-1-yl-phenyl)-amide]
2 | < 1 | > 25 | > 25 | 1 to 10 | 1 to 10 |  |  |  | Nc1nccnc1C(=O)Nc1cc(C(F)(F)F)ccc1N1CCNCC1 [Example 224, 3-amino-N-[2-piperazin-1-yl-5-(trifluoromethyl)phenyl]pyrazine-2-carboxamide]
3 | < 1 | < 1 | < 1 | > 25 | < 1 |  |  |  | Nc1nc(N)c(C(=O)Nc2cnccc2N2CCCCC2)nc1Cl [Example 121, 3,5-diamino-6-chloro-N-(4-piperidin-1-ylpyridin-3-yl)-pyrazine-2-carboxamide]
4 | < 1 | < 1 | 1 to 10 | < 1 | < 1 |  |  |  | Cc1cccc(-c2cnc(N)c(C(=O)Nc3ccccc3N3CCNCC3)n2)c1 [Example 388, 3-amino-6-m-tolyl-pyrazine-2-carboxylic acid (2-piper-azin-1-yl-phenyl)-amide]
5 | < 1 | < 1 | < 1 | > 25 | < 1 |  |  |  | NCCC(=O)N1CCN(c2cnc(=O)[nH]c2NC(=O)c2nc(Cl)c(N)nc2N)CC1 [Example 238, 3,5-diamino-6-chloro-pyrazine-2-carboxylic acid {5-[4-(3-amino-propionyl)-piperazin-1-yl]-2-oxo-2,3-dihydro-pyrimidin-4-yl}-amide]
6 | < 1 | > 25 | < 1 | 10 to 25 | < 1 |  |  |  | Nc1ncc(-c2ccc(N)c(C(=O)Nc3cnccc3N3CCC[C@H](N)C3)n2)cn1 [Example 411, 3-amino-6-(2-amino-pyrimidin-5-yl)-pyridine-2-carboxylic acid ((S)-3-amino-3,4,5,6-tetrahydro-2H-[1,4′]bipyridinyl-3′-yl)-amide]
7 | < 1 | > 25 | 1 to 10 | < 1 | < 1 |  |  |  | COc1ccc(N2CCCC(N)C2)c(NC(=O)c2nccnc2N)c1 (stereo not drawn) [Example 223, 3-amino-N-[2-(3-aminopiperidin-1-yl)-5-methoxyphenyl]pyrazine-2-carboxamide]
8 | < 1 | < 1 | > 25 | 1 to 10 | 1 to 10 |  |  |  | CC(=O)NC1CCCN(c2ccncc2NC(=O)c2nc(Br)cnc2N)C1 (stereo not drawn) [Example 304, N-(4-(3-acetamidopiperidin-1-yl)pyridin-3-yl)-3-amino-6-bromopyrazine-2-carboxamide]
9 | < 1 | 1 to 10 | < 1 | < 1 | < 1 |  |  |  | COc1ccc(-c2cnc(N)c(C(=O)Nc3ccccc3N3CCC(N)CC3)n2)cc1 [Example 381, 3-amino-6-(4-methoxy-phenyl)-pyrazine-2-carboxylic acid [2-(4-amino-piperidin-1-yl)-phenyl]-amide]
10 | 1 to 10 | < 1 | > 25 | 1 to 10 | 1 to 10 |  |  |  | COc1cncc(-c2cnc(N)c(C(=O)Nc3cnccc3N3CCNCC3)n2)n1 [Example 360, 5-amino-6′-methoxy-[2,2′]bipyrazinyl-6-carboxylic acid (4-piperazin-1-yl-pyridin-3-yl)-amide]
11 | 10 to 25 | 10 to 25 | > 25 | 10 to 25 | 10 to 25 |  |  |  | Nc1nccnc1C(=O)Nc1cc(C(=O)c2ccccc2)ccc1N1CCNCC1 [Example 232, 3-amino-pyrazine-2-carboxylic acid (5-benzoyl-2-piperazin-1-yl-phenyl)-amide]
12 | 1 to 10 | > 25 | 10 to 25 | 1 to 10 | 1 to 10 |  |  |  | Nc1nccnc1C(=O)Nc1cccnc1N1CCCC(N)C1 (stereo not drawn) [Example 196, 3-amino-N-[2-(3-aminopiperidin-1-yl)pyridin-3-yl]pyrazine-2-carboxamide]
13 | 1 to 10 | 10 to 25 | > 25 | 10 to 25 | 1 to 10 |  |  |  | Nc1nccnc1C(=O)Nc1cc(C(=O)c2ccccc2)ccc1N1CCCC(N)C1 (stereo not drawn) [Example 231, 3-amino-pyrazine-2-carboxylic acid [2-(3-amino-piperidin-1-yl)-5-benzoyl-phenyl]-amide]
14 | < 1 | 1 to 10 | > 25 | < 1 | 1 to 10 |  |  |  | COc1ncccc1-c1cnc(N)c(C(=O)Nc2ccccc2N2CCNCC2)n1 [Example 390, 3-amino-6-(2-methoxy-pyridin-3-yl)-pyrazine-2-carboxylic acid (2-piperazin-1-yl-phenyl)-amide]
15 | < 1 | 1 to 10 | 1 to 10 | < 1 | < 1 |  |  |  | Nc1ncc(Br)nc1C(=O)Nc1ccccc1N1CCNCC1 [Example 206, 3-amino-6-bromo-N-(2-piperazin-1-ylphenyl)pyrazine-2-carboxamide]
16 | 1 to 10 | 1 to 10 | > 25 | 1 to 10 | 1 to 10 |  |  |  | Nc1ncc(-c2ccccc2F)nc1C(=O)Nc1cc(C(=O)c2ccccc2)ccc1N1CCC(N)CC1 [Example 439, 3-amino-6-(2-fluoro-phenyl)-pyrazine-2-carboxylic acid [2-(4-amino-piperidin-1-yl)-5-benzoyl-phenyl]-amide]
17 |  | 1 to 10 |  | 1 to 10 |  | < 1 | 1 to 10 | < 1 | Nc1ncc(Br)nc1C(=O)Nc1cnccc1N1CCCC(NCc2ccccc2)C1 (stereo not drawn) [Example 598, 3-amino-6-bromo-pyrazine-2-carboxylic acid (3-benzylamino-3,4,5,6-tetrahydro-2H-[1,4′]bi-pyridinyl-3′-yl)-amide]
18 | < 1 | 1 to 10 | < 1 | < 1 | < 1 |  |  |  | NCC1CCCN(c2cnc(=O)[nH]c2NC(=O)c2nccnc2N)C1 (stereo not drawn) [Example 135, 3-amino-N-{5-[3-(amino-methyl)piperidin-1-yl]-2-oxo-2,3-dihydropyrimidin-4-yl}-pyrazine-2-carboxamide]
19 | < 1 | < 1 | 1 to 10 | < 1 | < 1 |  |  |  | Nc1nccnc1C(=O)Nc1cnccc1C1=CCCCC1 [Example 118, 3-amino-N-(4-cyclohex-1-en-1-ylpyridin-3-yl)pyrazine-2-carboxamide]
20 | < 1 | 1 to 10 | < 1 | < 1 | < 1 |  |  |  | COc1ccc(N2CCC(N)CC2)c(NC(=O)c2nc(-c3ccccc3)cnc2N)c1 [Example 437, 3-amino-6-phenyl-pyrazine-2-carboxylic acid [2-(4-amino-piperidin-1-yl)-5-methoxy-phenyl]-amide]
21 | 1 to 10 | 1 to 10 | > 25 | 10 to 25 | 10 to 25 |  |  |  | Nc1nccnc1C(=O)Nc1cnccc1Cl [Example 125, 3-amino-N-(4-chloropyridin-3-yl)pyrazine-2-carboxamide]
22 | < 1 | 10 to 25 | < 1 | > 25 | < 1 |  |  |  | COc1nc(N)ncc1-c1ccc(N)c(C(=O)Nc2cnccc2N2CCC[C@H](N)C2)n1 [Example 485, 3-Amino-6-(2-amino-4-methoxy-pyrimidin-5-yl)-pyridine-2-carboxylic acid (3-amino-3,4,5,6-tetrahydro-2H-[1,4′]bipyridinyl-3′-yl)-amide]
23 | 1 to 10 | < 1 | > 25 | 10 to 25 | 1 to 10 |  |  |  | COc1ccc(-c2cnc(N)c(C(=O)Nc3cc(C(=O)c4ccccc4)ccc3N3CCNCC3)n2)cc1 [Example 441, 3-amino-6-(4-methoxy-phenyl)-pyrazine-2-carboxylic acid (5-benzoyl-2-piperazin-1-yl-phenyl)-amide]
24 | < 1 | 1 to 10 | < 1 | 1 to 10 | < 1 |  |  |  | NCC(=O)N1CCN(c2ccncc2NC(=O)c2nc(Cl)c(N)nc2N)CC1 [Example 186, 3,5-diamino-N-{4-[4-(amino-acetyl)piperazin-1-yl]pyridin-3-yl}-6-chloropyrazine-2-carboxamide]
